Experiments:
rats = assay: Forced swimming test (immobility time, antidepressant activity); format: in vivo; conditions: parenteral, eight rats
Description: Details of this behavioural test are described for example by Willner, Psychopharmacology 83, 1-16 (1984) and by Borsini and Meli, Psychopharmacology 94, 147-160 (1988).
Pramipexol (SND 919) was investigated on eight rats, by comparison with amineptine, a known antidepressant. Both substances were dissolved in physiological saline solution and administered by parenteral route.

[1] = in vivo
[2] = in vivo; remark: listed apart in the source

Structure (SMILES) | Immobility time (rats; dose 20.00 mg/kg) | bioavailability [1] | half-life [1] | Immobility time (rats; dose 0.03 mg/kg) | Immobility time (rats; dose 0.10 mg/kg) | Immobility time (rats; dose 0.30 mg/kg) | tolerability [2]
O=C(O)CCCCCCNC1c2ccccc2CCc2ccccc21 [Amineptine, reference compound] | 134 ± 19 s |  |  |  |  |  | 
CCCN[C@H]1CCc2nc(N)sc2C1 [SND 919, 2-amino-6-n-propyl-amino-4,5,6,7-tetrahydrobenzothiazole] |  | > 80% | 12.5 h | 210 ± 14 s | 165 ± 6 s | 102 ± 17 s | extremely well tolerated
